In patent US9108969B2, “Substituted tricyclic acid derivatives as S1P1 receptor agonists useful in the treatment of autoimmune and inflammatory disorders” (Arena Pharmaceuticals, Inc., priority 2008, dated 2015):
One block for each compound: values may come before it.

Assays:
human S1P1 receptor = target: T1, human S1P1 receptor (Homo sapiens, UniProt P21453); assay: HTRF assay for direct cAMP measurement (S1P1 agonism); assay type: cell-based; conditions: recombinant CHO-K1 cells stably transfected with S1P1; decrease of cAMP
T1 construct: expressed in transfected cells; host or cells: CHO-K1 (ATCC CCL-61), stably transfected
T1 sequence (P21453 whole entry): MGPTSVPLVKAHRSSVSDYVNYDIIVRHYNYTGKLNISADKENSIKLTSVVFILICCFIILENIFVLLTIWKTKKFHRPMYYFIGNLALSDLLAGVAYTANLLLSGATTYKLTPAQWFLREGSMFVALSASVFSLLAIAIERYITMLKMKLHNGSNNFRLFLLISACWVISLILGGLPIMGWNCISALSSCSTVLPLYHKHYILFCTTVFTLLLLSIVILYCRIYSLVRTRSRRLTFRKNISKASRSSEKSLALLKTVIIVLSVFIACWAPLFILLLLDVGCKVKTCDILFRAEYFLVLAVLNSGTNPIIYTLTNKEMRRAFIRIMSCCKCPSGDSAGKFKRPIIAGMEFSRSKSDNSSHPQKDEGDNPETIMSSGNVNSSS
Text: Compounds were screened for agonists of the S1P1 receptor (e.g., human S1P1 receptor) using the HTRF® assay for direct cAMP measurement (Gabriel et al., Assay and Drug Development Technologies, 1:291-303, 2003) and recombinant CHO-K1 cells stably transfected with S1P1. CHO-K1 cells were obtained from ATCC® (Manassas, Va.; Catalog #CCL-61). An agonist of the S1P1 receptor was detected in the HTRF® assay for direct cAMP measurement as a compound which decreased cAMP concentration. HTRF® assay also was used to determine EC50 values for S1P1 receptor agonists.
Principle of the Assay:HTRF® assay kit was purchased from Cisbio-US, Inc. (Bedford, Mass.; Catalog #62AM4PEC). The HTRF® assay supported by the kit is a competitive immunoassay between endogenous cAMP produced by the CHO-K 1 cells and tracer cAMP labeled with the dye d2. The tracer binding is visualized by a monoclonal anti-cAMP antibody labeled with Cryptate. The specific signal (i.e., fluorescence resonance energy transfer, FRET) is inversely proportional to the concentration of unlabeled cAMP in the standard or sample.
Standard Curve:The fluorescence ratio (665 nm/620 nm) of the standards (0.17 to 712 nM cAMP) included in the assay was calculated and used to generate a cAMP standard curve according to the kit manufacturer's instructions. The fluorescence ratio of the samples (test compound or compound buffer) was calculated and used to deduce respective cAMP concentrations by reference to the cAMP standard curve.
Setup of the Assay: The HTRF® assay was carried out using a two-step protocol essentially according to the kit manufacturer's instructions, in 20 μL total volume per well in 384-well plate format (ProxiPlates; PerkinElmer, Fremont, Calif.; catalog #6008280). To each of the experimental wells was transferred 1500 recombinant CHO-K1 cells in 5 μL phosphate buffered saline containing calcium chloride and magnesium chloride (PBS+; Invitrogen, Carlsbad, Calif.; catalog #14040) supplemented with IBMX (250 μM) and rolipram (20 μM) (phosphodiesterase inhibitors; Sigma-Aldrich, St. Louis, Mo.; catalog #15879 and catalog #R6520, respectively), followed by test compound in 5 μL compound buffer (PBS+ supplemented with […] (water-soluble forskolin derivative; SignaGen Laboratories, Gaithersburg, Md.; catalog #PKI-NKH477-010)) or 5 μL compound buffer. The plate was then incubated at room temperature for 1 h. To each well was then added 5 μL cAMP-d2 conjugate in lysis buffer and 5 μL Cryptate conjugate in lysis buffer according to the kit manufacturer's instructions. The plate was then further incubated at room temperature for 1 hour, after which the assay plate was read.
Assay Readout: HTRF® readout was accomplished using a PHERAstar (BMG LABTECH Inc., Durham, N.C.) or EnVision™ (PerkinElmer, Fremont Calif.) microplate reader.

[1] = system: peripheral blood lymphocyte (PBL) count; assay: Rat peripheral lymphocyte lowering (PLL) assay; assay type: in vivo, Male Sprague-Dawley rats; conditions: 1 mg/kg intravenous dose, 5 h post-dose, FIG. 12 and 13
Description: Animals: Male Sprague-Dawley rats (Charles River Laboratories, Hollister, Calif.) were housed and maintained in humidity (40 to 60%) and temperature (68 to 72° F.) controlled facility on a 12 h:12 h light/dark cycle (lights on at 6:30 am) with free access to food (Harlan Teklad, Orange, Calif., Rodent Diet 8604) and water. Rats were allowed (approximately) one week of habituation to the animal facility before testing.
PLL Assay: Rats were given a 1 mg/kg intravenous dose of the first enantiomer isolated after resolution of compound 12 by HPLC (retention time: 15 min per the conditions reported in Example 1.3), or dosing vehicle (40% hydroxypropyl-cyclodextrin (HPCD)) in a total volume of 1 mL/kg. Peripheral blood samples were collected at 5 h post-dose. Blood was collected via indwelling catheter. A complete cell count (CBC), including lymphocyte count, was obtained using a CELL-DYN® 3700 (Abbott Laboratories, Abbott Park, Ill.) instrument. Results are presented in FIG. 12, in which peripheral blood lymphocyte (PBL) count is shown for the 5 hour group.
Similarly, rats were given a 1 mg/kg intravenous dose of the second enantiomer isolated after resolution of compound 12 by HPLC (retention time: 18 min per the conditions reported in Example 1.3), or dosing vehicle (40% hydroxypropyl-cyclodextrin (HPCD)) in a total volume of 1 mL/kg. […]

multiple sclerosis = conditions: patients with multiple sclerosis, Phase II; cited from earlier work
[2] = attributed to agonism of the S1P3 receptor; cited from earlier work
[3] = system: ovariectomy-induced osteoporosis; conditions: mice; cited from earlier work
[4] = system: VEGF-induced vascular permeability; conditions: mice, oral administration; cited from earlier work
[5] = system: experimental autoimmune myasthenia gravis (EAMG); conditions: prophylactic oral administration, 1 mg/kg, three times a week, C57BL/6 mice; cited from earlier work
[6] = system: experimental autoimmune uveoretinitis; conditions: short-term high dose; cited from earlier work
[7] = system: contact hypersensitivity (CHS); conditions: murine; cited from earlier work
[8] = system: spared nerve injury model; conditions: cited from earlier work
peripheral lymphocytes = conditions: Hale et al. 2004; cited from earlier work
[9] = system: peripheral blood lymphocyte (PBL) count; assay: Mouse peripheral lymphocyte lowering (PLL) assay; assay type: in vivo, Male BALB/c mice; conditions: oral dose, 5 hours post-dose, FIG. 11
Description: Animals: Male BALB/c mice (Charles River Laboratories, Wilmington, Mass.) were housed four per cage and maintained in a humidity-controlled (40 to 60%) and temperature-controlled (68 to 72° F.) facility on a 12 h:12 h light/dark cycle (lights on at 6:30 am) with free access to food (Harlan Teklad, Orange, Calif., Rodent Diet 8604) and water. Mice were allowed one week of habituation to the animal facility before testing.
PLL Assay: Mice were given an oral dose of Compound 2 or dosing vehicle (0.5% methylcellulose) in a total volume of 10 mL/kg. Peripheral blood samples were collected at 5 hours post-dose. The mice were anesthetized with isoflurane and blood was collected via cardiac puncture. A complete cell count (CBC), including lymphocyte count, was obtained using a CELL-DYN® 3700 (Abbott Laboratories, Abbott Park, Ill.) instrument. Results are presented in FIG. 11, in which peripheral blood lymphocyte (PBL) count is shown for the 5 hour group.

[10] = system: collagen-induced arthritis; assay: Collagen-induced arthritis assay; assay type: in vivo, Female Lewis rats; conditions: rat, 0.3, 1 and 3 mg/kg p.o. q.d. day 0 through day 16, FIG. 14
Description: Female Lewis rats were used in this study. Acclimated animals were anesthetized with isoflurane and given the first collagen injection (day 0). On day 6, they were anesthetized again for the second collagen injection. Collagen was prepared by making a 4 mg/mL solution in 0.01 N acetic acid. Equal volumes of collagen and incomplete Freund's adjuvant were emulsified by hand mixing until a bead of this material held its form when placed in water. Each animal received 300 μL of the mixture each time, spread over 3 subcutaneous sites on the back.
Treatment (p.o., q.d., 5 mL/kg dosing volume) began on day 0 and continued through day 16 with vehicle or compounds given at 24 h intervals. Rats were weighed on days 0, 3, 6 and 9 through 17 and caliper measurements of the ankles taken on days 9 through 17.
The second enantiomer isolated after resolution of compound 12 by HPLC (retention time: 18 min per the conditions reported in Example 1.3), was dosed at 0.3, 1 and 3 mg/kg.

- EC50 (human S1P1 receptor): 6.3 nM
SMILES: O=C(O)CC1CCn2c1nc1cc(OCc3ccc(C4CCCC4)c(C(F)(F)F)c3)ccc12 (centres unmarked) [Compound 14, 2-(6-(4-cyclopentyl-3-(trifluoromethyl)benzyloxy)-2,3-dihydro-1H-benzo[d]pyrrolo[1,2-a]imidazol-3-yl)acetic acid]

- EC50 (human S1P1 receptor): 0.321 nM
SMILES: CC(C)Cc1ccc(COc2ccc3c(c2)cc2n3CCC2CC(=O)O)cc1C(F)(F)F (centres unmarked) [Compound 4, 2-(7-(4-isobutyl-3-(trifluoromethyl)benzyloxy)-2,3-dihydro-1H-pyrrolo[1,2-a]indol-1-yl)acetic acid]

- EC50 (human S1P1 receptor): 0.239 nM
SMILES: CC(C)Oc1ccc(COc2ccc3c(c2)cc2n3CCC2CC(=O)O)cc1C#N (centres unmarked) [Compound 6, 2-(7-(3-cyano-4-isopropoxybenzyloxy)-2,3-dihydro-1H-pyrrolo[1,2-a]indol-1-yl)acetic acid]

- EC50 (human S1P1 receptor): 5.2 nM
SMILES: O=C(O)CC1CCn2c1c(C1CCC1)c1cc(OCc3ccc(C4CCCC4)c(C(F)(F)F)c3)ccc12 (centres unmarked) [Compound 11, 2-(9-cyclobutyl-7-(4-cyclopentyl-3-(trifluoromethyl)benzyloxy)-2,3-dihydro-1H-pyrrolo[1,2-a]indol-1-yl)acetic acid]

- EC50 (human S1P1 receptor): 0.011 nM
SMILES: O=C(O)CC1CCn2c1c(I)c1cc(OCc3ccc(C4CCCC4)c(C(F)(F)F)c3)ccc12 (centres unmarked) [Compound 10, 2-(7-(4-cyclopentyl-3-(trifluoromethyl)benzyloxy)-9-iodo-2,3-dihydro-1H-pyrrolo[1,2-a]indol-1-yl)acetic acid]

Continued, compound first:

SMILES: O=C(O)CC1CCn2c1cc1cc(OCc3ccc(C4CCCC4)c(C(F)(F)F)c3)ccc12 (stereo not drawn) [first enantiomer isolated after resolution of compound 12 by HPLC, 2-(7-(4-cyclopentyl-3-(trifluoromethyl)benzyloxy)-2,3-dihydro-1H-pyrrolo[1,2-a]indol-1-yl)acetic acid]
- peripheral blood lymphocyte (PBL) lowering compared to vehicle [1]: exhibited activity for inducing PBL lowering (lymphopenia)

SMILES: CCCCCCCCc1ccc(CCC(N)(CO)CO)cc1 [FTY720]
- MRI lesions and clinical disease activity (multiple sclerosis): reduce the number of lesions detected by magnetic resonance imaging (MRI) and clinical disease activity
- adverse event in clinical trials [2]: transient asymptomatic bradycardia
- ovariectomy-induced osteoporosis [3]: relieved ovariectomy-induced osteoporosis
- VEGF-induced vascular permeability [4]: potently blocked VEGF-induced vascular permeability
- development of EAMG [5]: completely prevented the development of experimental autoimmune myasthenia gravis
- ocular infiltrates [6]: rapidly reduced ocular infiltrates
- initiation of contact hypersensitivity [7]: impair initiation of murine contact hypersensitivity
- nociceptive behavior [8]: reduce the nociceptive behavior
- induction of lymphopenia (peripheral lymphocyte lowering) (peripheral lymphocytes): rapidly and reversibly induce lymphopenia

SMILES: N#Cc1cc(COc2ccc3c(c2)cc2n3CCC2CC(=O)O)cc(OC(F)(F)F)c1 (centres unmarked) [Compound 2, 2-(7-(3-cyano-5-(trifluoromethoxy)benzyloxy)-2,3-dihydro-1H-pyrrolo[1,2-a]indol-1-yl)acetic acid]
- peripheral blood lymphocyte (PBL) lowering compared to vehicle [9]: exhibited activity for inducing PBL lowering (lymphopenia)

SMILES: O=C(O)CC1CCn2c1cc1cc(OCc3ccc(C4CCCC4)c(C(F)(F)F)c3)ccc12 (stereo not drawn) [second enantiomer isolated after resolution of compound 12 by HPLC, 2-(7-(4-cyclopentyl-3-(trifluoromethyl)benzyloxy)-2,3-dihydro-1H-pyrrolo[1,2-a]indol-1-yl)acetic acid]
- reduction of mean ankle diameter compared to vehicle [10]: exhibited activity for reducing mean ankle diameter
